Series [1] deals with Leucine-rich repeat serine/threonine-protein kinase 2 (Homo sapiens, UniProt Q5S007, G2019S).
Description: Inhibition of recombinant human LRRK2 (970 to 2527 residues) G2019S mutant expressed in baculovirus preincubated for 30 mins followed by fluorescein-LRRKtide substrate addition after 2 hrs by TR-FRET assay
In series [2] the target is T1, Leucine-rich repeat serine/threonine-protein kinase 2 (Homo sapiens, UniProt Q5S007). The series can be described thus: Inhibition of recombinant human wild type GST-tagged LRRK2 (970 to 2527 residues) at 200 uM preincubated for 30 mins followed by fluorescein-LRRKtide substrate addition after 2 hrs by TR-FRET assay relative to control.
Series [3] concerns the target T1, Leucine-rich repeat serine/threonine-protein kinase 2.
Description: Inhibition of recombinant human wild type GST-tagged LRRK2 (970 to 2527 residues) preincubated for 30 mins followed by fluorescein-LRRKtide substrate addition after 2 hrs by TR-FRET assay
In series [4] the test system is Leucine-rich repeat serine/threonine-protein kinase 2 (Homo sapiens), Q5S007 [G2019S]. As to conditions: at 40 µM.
Chain of Leucine-rich repeat serine/threonine-protein kinase 2 (Homo sapiens), Q5S007 [G2019S] (Q5S007 whole entry G2019S, the tested form may be a part): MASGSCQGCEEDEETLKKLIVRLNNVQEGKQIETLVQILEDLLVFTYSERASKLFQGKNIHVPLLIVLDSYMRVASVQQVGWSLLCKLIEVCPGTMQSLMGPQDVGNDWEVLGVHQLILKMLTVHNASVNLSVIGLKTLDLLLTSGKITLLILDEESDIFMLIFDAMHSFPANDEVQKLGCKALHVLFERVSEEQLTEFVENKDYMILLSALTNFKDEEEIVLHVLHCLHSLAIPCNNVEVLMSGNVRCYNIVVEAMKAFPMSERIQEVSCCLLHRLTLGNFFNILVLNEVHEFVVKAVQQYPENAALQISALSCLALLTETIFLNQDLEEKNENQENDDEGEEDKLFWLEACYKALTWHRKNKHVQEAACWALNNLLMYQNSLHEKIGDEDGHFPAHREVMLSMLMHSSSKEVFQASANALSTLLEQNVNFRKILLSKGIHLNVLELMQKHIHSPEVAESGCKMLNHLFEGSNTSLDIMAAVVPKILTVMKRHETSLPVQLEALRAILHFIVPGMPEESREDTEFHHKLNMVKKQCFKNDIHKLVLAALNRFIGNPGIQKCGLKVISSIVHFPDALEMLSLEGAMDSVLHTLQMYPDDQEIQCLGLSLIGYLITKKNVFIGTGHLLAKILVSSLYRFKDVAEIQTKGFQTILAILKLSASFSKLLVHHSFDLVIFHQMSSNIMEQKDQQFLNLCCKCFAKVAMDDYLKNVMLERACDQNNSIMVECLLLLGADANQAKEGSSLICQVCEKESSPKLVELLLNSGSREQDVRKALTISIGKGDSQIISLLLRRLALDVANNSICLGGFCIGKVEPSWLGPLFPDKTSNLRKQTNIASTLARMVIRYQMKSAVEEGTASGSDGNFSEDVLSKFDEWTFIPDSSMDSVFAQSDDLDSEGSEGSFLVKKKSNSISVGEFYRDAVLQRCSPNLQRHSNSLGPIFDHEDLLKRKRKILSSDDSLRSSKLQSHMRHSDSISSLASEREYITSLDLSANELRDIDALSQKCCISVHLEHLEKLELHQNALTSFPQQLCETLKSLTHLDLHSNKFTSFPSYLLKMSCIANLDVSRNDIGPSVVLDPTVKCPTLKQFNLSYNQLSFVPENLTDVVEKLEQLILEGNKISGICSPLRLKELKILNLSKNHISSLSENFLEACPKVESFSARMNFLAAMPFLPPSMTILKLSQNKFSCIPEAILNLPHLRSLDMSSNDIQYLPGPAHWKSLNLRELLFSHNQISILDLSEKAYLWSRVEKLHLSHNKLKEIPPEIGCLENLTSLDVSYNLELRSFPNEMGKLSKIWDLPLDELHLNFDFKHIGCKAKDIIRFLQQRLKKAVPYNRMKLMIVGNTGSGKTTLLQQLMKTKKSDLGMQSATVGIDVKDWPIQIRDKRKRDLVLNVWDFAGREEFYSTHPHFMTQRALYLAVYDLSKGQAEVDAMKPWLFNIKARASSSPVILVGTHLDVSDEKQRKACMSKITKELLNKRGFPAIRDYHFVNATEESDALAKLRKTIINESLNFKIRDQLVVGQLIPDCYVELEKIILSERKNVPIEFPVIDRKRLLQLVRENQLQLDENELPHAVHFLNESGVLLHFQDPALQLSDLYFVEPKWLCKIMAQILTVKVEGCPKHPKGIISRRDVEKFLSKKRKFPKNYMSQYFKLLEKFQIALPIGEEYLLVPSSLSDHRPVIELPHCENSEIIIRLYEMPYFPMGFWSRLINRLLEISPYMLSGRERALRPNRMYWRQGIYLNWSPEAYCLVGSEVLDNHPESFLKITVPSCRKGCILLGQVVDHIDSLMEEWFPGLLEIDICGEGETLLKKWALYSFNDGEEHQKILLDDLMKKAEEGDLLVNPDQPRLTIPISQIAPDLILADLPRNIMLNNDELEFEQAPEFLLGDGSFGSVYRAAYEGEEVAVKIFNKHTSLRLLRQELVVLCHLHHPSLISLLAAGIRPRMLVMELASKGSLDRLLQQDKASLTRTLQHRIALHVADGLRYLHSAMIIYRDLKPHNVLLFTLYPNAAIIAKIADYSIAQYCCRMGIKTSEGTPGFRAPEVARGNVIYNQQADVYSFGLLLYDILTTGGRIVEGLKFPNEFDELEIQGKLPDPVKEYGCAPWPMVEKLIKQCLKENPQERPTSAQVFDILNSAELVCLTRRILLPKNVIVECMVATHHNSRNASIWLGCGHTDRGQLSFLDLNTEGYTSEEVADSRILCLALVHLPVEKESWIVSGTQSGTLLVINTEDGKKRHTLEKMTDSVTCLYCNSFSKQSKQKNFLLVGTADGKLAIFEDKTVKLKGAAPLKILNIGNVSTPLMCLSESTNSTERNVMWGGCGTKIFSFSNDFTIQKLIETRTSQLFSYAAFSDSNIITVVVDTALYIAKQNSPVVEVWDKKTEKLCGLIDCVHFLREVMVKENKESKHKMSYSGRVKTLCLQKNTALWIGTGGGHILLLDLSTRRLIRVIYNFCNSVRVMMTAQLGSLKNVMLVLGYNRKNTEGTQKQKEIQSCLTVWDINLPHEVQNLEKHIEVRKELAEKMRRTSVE
Description: Inhibition of recombinant human LRRK2 (970 to 2527 residues) G2019S mutant expressed in baculovirus at 40 uM preincubated for 30 mins followed by fluorescein-LRRKtide substrate addition after 2 hrs by TR-FRET assay
In series [5] the target is T1, Leucine-rich repeat serine/threonine-protein kinase 2. The series can be described thus: Inhibition of recombinant human wild type GST-tagged LRRK2 (970 to 2527 residues) at 30 uM preincubated for 30 mins followed by fluorescein-LRRKtide substrate addition after 2 hrs by TR-FRET assay relative to control. On the technique in general: TR-FRET usually uses a lanthanide donor and a delayed reading to cut background.

Series [6] has as its system Leucine-rich repeat serine/threonine-protein kinase 2 (Homo sapiens), Q5S007 [G2019S]. As to conditions: at 200 µM.
Description: Inhibition of recombinant human LRRK2 (970 to 2527 residues) G2019S mutant expressed in baculovirus at 200 uM preincubated for 30 mins followed by fluorescein-LRRKtide substrate addition after 2 hrs by TR-FRET assay
In series [7] the target is T1, Leucine-rich repeat serine/threonine-protein kinase 2. The series can be described thus: Inhibition of recombinant human wild type GST-tagged LRRK2 (970 to 2527 residues) at 22 uM preincubated for 30 mins followed by fluorescein-LRRKtide substrate addition after 2 hrs by TR-FRET assay relative to control.
A short description of series [8]: Intrinsic clearance in human liver microsomes. Type of series: ADME, microsome. As to conditions: read-out: CLH (converted). In general terms: Liver microsomes are a subcellular fraction often used to study metabolism.
Series [9] can be described thus: Intrinsic clearance in rat liver microsomes. As to conditions: read-out: CLH (converted). Format: ADME, microsome.
Series [10] can be described thus: Apparent permeability in MDCK cells. Format: ADME, cell-based, Canis lupus familiaris. As to conditions: dog.
Series [11] can be described thus: Efflux ratio of apparent permeability from basolateral to apical over apical to basolateral side in MDCK cells. Format: ADME, cell-based, Canis lupus familiaris. As to conditions: dog.
Series [12] can be described thus: Aqueous solubility of the compound in pH 7.4. Format: physicochemical. As to conditions: aqueous medium.
The target in series [13] is T1, Leucine-rich repeat serine/threonine-protein kinase 2. As to the kind of experiment: Inhibition of recombinant human wild type GST-tagged LRRK2 (970 to 2527 residues) at 66.7 uM preincubated for 30 mins followed by fluorescein-LRRKtide substrate addition after 2 hrs by TR-FRET assay relative to control.

SMILES strings stand for the structures. pIC50: −log10 of the molar value. Converted amounts (≈) assume the structure as drawn.

Chain of Leucine-rich repeat serine/threonine-protein kinase 2 (Homo sapiens, UniProt Q5S007, G2019S) (Q5S007 whole entry G2019S, the tested form may be a part): as above
T1 sequence (Q5S007 whole entry, the tested form may be a part): as the sequence (Q5S007 whole entry G2019S, the tested form may be a part) above, with S2019G counted along it

`Cn1cc(-c2cc(-c3ccc4[nH]ccc4c3)cnc2N)cn1` gave a pIC50 in series [1] of 4.89. Further, in series [2], the inhibition worked out at 75%.
Turning to `CCNc1nc(Nc2cc(F)c(C(=O)N3CCOCC3)cc2OC)ncc1C(F)(F)F`, the pIC50 is 7.34 in [1] and 7.01 in series [3].
For `CCn1cc(-c2cc(-c3ccc(C)cc3)cnc2N)cn1`, in that order: 4.92 and 4.92.
On to `Cn1ccc(-c2cc(-c3ccc4[nH]ccc4c3)cnc2N)n1`, for which the inhibition was 48% in series [2] and 65% in series [4].
For the compound `Cc1ccc(-c2cnc(N)c(-c3nnc(C4CC4)o3)c2)cc1`, the pIC50 in series [1] is 5.66; in series [3], 5.64.
In the case of `Cc1ccc(-c2cnc(N)c(-c3cnc(C)o3)c2)cc1`, the figures for the pIC50 in series [1] and in series [3] were 4.96 and 4.62, respectively.
As for `Nc1ncc(-c2ccc3[nH]ccc3c2)cc1-c1nnc(C2CC2)o1`, the results for the pIC50 in series [1] and in series [3] were 5.80 and 5.89, respectively.
In turn, `Cn1cc(-c2cc(-c3ccc4c(ccn4C)c3)cnc2N)cn1` gave a pIC50 in series [1] of 5.24. Further, in series [5], the inhibition was found to be 64%.
`Cc1nnc(-c2cc(-c3ccc4[nH]ccc4c3)cnc2N)o1` showed a pIC50 in series [1] of 5.44.
Regarding `Cc1ccc(-c2cnc(N)c(-c3cnn(C)c3C)c2)cc1`, the figures for the inhibition in series [2] and in series [6] were 49% and 62%, respectively.
Take `Cc1ccc(-c2cnc(N)c(-c3cn(C)cn3)c2)cc1`: the pIC50 in series [1] is 4.24. In addition, in series [2], the inhibition amounted to 60%.
`CCc1nnc(-c2cc(-c3ccc4[nH]ccc4c3)cnc2N)o1` had a pIC50 in [1] of 5.54. The inhibition in series [7] was determined as 77%.
In the case of `Cc1ccc(-c2cnc(N)c(-c3cnn(C)c3)c2)cc1`, the pIC50 was 5.17 in [1] and 4.80 in [3]. Also, the CLint scaled in series [8] is 100 mL/min/kg; in [9], 283 mL/min/kg. The Papp in series [10] is 16.9 ×10⁻⁶ cm/s. Also, the efflux ratio in series [11] was 0.55. In addition, the concentration in solution in [12] (solubility) came to 11 µg/mL (≈ 41.6 µM).
Regarding `Cc1ccc(-c2cnc(N)c(-n3cc(C)nn3)c2)cc1`, in series [1], the negative logarithm of the IC50 (pIC50) is 5.04. The inhibition in series [5] was 70%.
`Cc1ccc(-c2cnc(N)c(-c3cn[nH]c3)c2)cc1`: the pIC50 in series [1] was 4.89. Also, the inhibition in series [13] was determined as 72%.

As usually defined, the pIC50 is the negative decadic logarithm of the IC50, by convention in mol/L. Low readings indicate a high IC50, high ones a low IC50. The term inhibition denotes the drop in the measured response relative to a control, in per cent. Usually Papp stands for a coefficient for how fast a substance crosses the barrier. One may read the efflux ratio as a quotient of directional permeabilities that is used to spot active efflux. The solubility is the concentration that dissolves in the medium under given conditions. The low end stands for little dissolved substance, the high end for much dissolved substance.

Source of the values: ChEMBL document CHEMBL4043168, “The design and SAR of a novel series of 2-aminopyridine based LRRK2 inhibitors” (Bioorg Med Chem Lett, 2017).
